According to patent publication US12731806B2, “Electrolyte regeneration for organic redox flow batteries based on water-soluble phenazine-based compounds” (CMBLU Energy AG, priority 2020, dated 2026):
In brackets after ≈: the same amount, converted by molar mass.

Legend:
physchem = conditions: aqueous buffer
[1] = Solubility of DHPS and its degradation species

solubility (physchem) [mM]	Compound	solubility in a DHPS solution ([1]; DHPS solution up to 0.5 M)	solubility ([1]; aqueous buffer) [mM]
200 to 400 (≈ 42.4 to 84.9 mg/mL)	Oc1cc2nc3ccccc3nc2cc1O [DHP, Dihydroxyphenazine]		
	Oc1ccc2nc3ccccc3nc2c1 [MHP, Monohydroxyphenazine]	does not change significantly	100 to 300 (≈ 19.6 to 58.9 mg/mL)
1400 to 1600 (≈ 409 to 468 mg/mL)	O=S(=O)(O)c1ccc2nc3cc(O)c(O)cc3nc2c1 [DHPS, 7,8-Dihydroxyphenazinesulfonic acid]		
